PubChem BioAssay (NCI)
Where “and” joins values, the source holds several entries; their conditions need not be identical. Identical values can stand only once.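 A five-concentration, 48-hour dose response in 96-well plates underlies each endpoint, interpolated linearly between surrounding concentrations. GI50 = concentration required for 50% inhibition of growth. The concentration for full growth arrest is given as TGI.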

How the values were obtained:
Test in all cases: inhibition of tumour cell growth, NCI panel, 48 h
[1] = test system: DU-145 prostate
[2] = test system: EKVX NSCLC
[3] = test system: NCI-H226 lung
[4] = test system: OVCAR-4 ovarian
[5] = test system: SW-620 colon

For `O=C1/C(=C/c2ccc(Cl)c(Cl)c2)CN(C(=O)CCN2CCOCC2)C/C1=C\c1ccc(Cl)c(Cl)c1`, the TGI [1] was 148 nM, the GI50 [2] was 1370 nM and the TGI [2] was 4350 nM and 6410 nM and 3090 nM. For the same compound, the TGI [3] was 4550 nM and 4150 nM, the GI50 [4] was 1560 nM and the GI50 [5] was 1390 nM and 229 nM and 249 nM. For the same compound, the TGI [5] was 3320 nM and 563 nM and 746 nM.
